From patent US11173446B2, “Process for removal of acid gases from a fluid stream” (BASF SE, priority 2017, dated 2021)

Assays:
[1] = pKa of the amino groups by titration with hydrochloric acid (Example 5); format: physicochemical; details: 20° C.
[2] = Volatility of 30% by weight aqueous amine solutions (Example 4); format: physicochemical; details: 30% by weight aqueous solutions, 50° C.

pKA value, comparison in words [1]: greater than that of MDEA
SMILES: CC(C)(C)NCC(O)CO (centres unmarked) [TBAPD, 3-(tert-butylamino)propane-1,2-diol]
volatility, comparison in words [2]: lower volatility compared to the M3ETB, TBAEE and MDEA
